Experimental findings from patent publication US9447068B2, “Functionalized polymer compositions” (Novus International Inc., priority 2012, dated 2016) are described below.

In this assay the test system is Ross 708 male broilers. Nature of the assay: In vivo efficacy study in chickens: methionine source in methionine-deficient diet. The following applies: young broilers, 0 to 14 days of age, 0.15% added methionine, diet deficient in methionine (0.26%). On the procedure: HMTBA homopolymer was compared to HMTBA calcium salt (MHA) in young broilers chicks as methionine source with a diet deficient in dietary methionine (0.26%) as negative control. A total of 108 Ross 708 male broilers were randomly assigned to 18 battery pens with 6 birds per pen. Six replicate pens were fed one of the 3 test diets from 0 to 14 days of age. HMTBA and MHA were added at equal molar basis to provide 0.15% added methionine. Growth performance parameters including body weight, feed conversion ratio (FCR), feed intake, and mortality, were measured and the body weight and FCR results are shown in FIG. 4.

For `CSCCC(O)C(=O)[O-].CSCCC(O)C(=O)[O-].[Ca+2]` (stereo not shown) [MHA, HMTBA calcium salt], the body weight entry was “significantly increased”, the “feed conversion ratio (FCR)” value is given as “significantly improved”, the performance index result was “significantly increased” and the weight gain entry is “significantly increased”.
